In article PMC11513892, “Discovery of a Series of Macrocycles as Potent Inhibitors of Leishmania Infantum” (Journal of Medicinal Chemistry, 2024):
Read-outs that look alike come from different tables or passages of the source.

Experiments:
[1] = Clearance in human microsomes; assay type: in vitro ADME; conditions: CSV supplement; for microsomal CLint: human, microsomes, read-out: CLint in vitro Human Microsomes
Text: Supplement jm4c01370_si_002.csv, table | column: CLint in vitro Human Microsomes µL/min/mg; t(1/2) min

[2] = test system: primary mouse macrophages (PMMs); experiment: Host cell cytotoxicity in primary mouse macrophages (PMM); assay type: cell-based; conditions: CSV supplement; decimal comma
[3] = Kinetic solubility in phosphate buffered saline at pH 7.4; assay type: physicochemical
Method: (§1) The kinetic solubility in phosphate buffered saline at pH 7.4, chromatographic Log D at pH 7.4, cell permeability across a MDCK-MDR1 cell monolayer at pH 7.4, and the clearance in mouse liver microsomes of 1–12 was determined at TCG Lifesciences.

[4] = test system: MRC-5 cells; experiment: Host cell cytotoxicity in MRC-5 cells; assay type: cell-based, human; conditions: CSV supplement; decimal comma
[5] = test system: MDR1; experiment: in vitro; assay type: in vitro ADME, canine; conditions: dog; for Papp B→A: MDCK-MDR1, pH 7.4; for Papp A→B: MDCK-MDR1, pH 7.4, Papp AB
Method: (§2) The potency of macrocycles 1–12 to inhibit the growth of L. infantum was determined in a phenotypic assay in which the parasite was grown in primary peritoneal mouse macrophages (PMMs). To understand whether the SAR for inhibition of parasitic growth is impacted by low cell permeability, the permeability of compounds 1–12 was determined separately. Madin-Darby canine kidney (MDCK) cells transfected with the human MDR1 (multidrug resistance 1) gene (MDCK-MDR1 cells) were used to determine permeabilities in the apical to basolateral direction (Papp AB) as well as efflux ratios (ERs). […] Lipophilicity (Log D at pH 7.4), aqueous kinetic solubility and mouse liver microsomal metabolism were also determined for 1–12, and are discussed separately (cf. physiochemical properties and ADMET, below).
as §1

[6] = test system: T. b. rhodesiense; experiment: Growth of T. b. rhodesiense trypomastigotes in axenic culture; assay type: cell-based, Trypanosoma brucei rhodesiense; conditions: for EC50: Trypanosoma brucei, RHODESIENSE / STIB900, CSV supplement, decimal comma, read-out: EC50 T.b. rhodesiense STIB 900; for activity as inhibitor of T. b. rhodesiense (in words): text on Table S1
Text: (§3) We previously reported the synthesis of a series of macrocycles, including 1 (Figure 2A), designed to investigate how structural features influence molecular chameleonicity.[15],[21] Originating from the structural similarities between 1 and hymenocardine, we investigated 1 in screens for P. falciparum and four kinetoplastid parasites: T. b. brucei, T. b. rhodesiense, T. cruzi, and L. infantum. In the screens, we also included compounds 2 and 3 (Figure 2A), which were obtained from an intermediate late in the synthetic route to 1. Since very few validated protein targets relevant to clearance of parasites are known, phenotypic assays were used to investigate the antiparasitic activity for all five parasites. For malaria, the P. falciparum blood stage 3D7 strain was used to test the three compounds. For the two Trypanosoma brucei species, the reduction in trypomastigote growth in culture medium was determined after the addition of 1–3. For T. cruzi, the intracellular parasite growth in infected human fibroblasts (MRC-5 cell line) was assessed in the presence and absence of the three inhibitors. Similarly, the growth of L. infantum was assessed in infected primary mouse macrophages (PMMs) in the presence and absence of the inhibitors. […] The assays for T. cruzi and L. infantum are complex, i.e., they determine the degree of inhibition of parasitic replication in a mammalian cell line; this complexity may lead to a high variability for some compounds.
(§4) The growth of the P. falciparum blood stage 3D7 strain,[53] the two T. brucei species in axenic cultures,[54]T. cruzi in infected human fibroblasts (MRC-5 cell line),[55] and of L. infantum in infected primary mouse macrophages (PMMs)[56] was determined as previously reported in the presence and absence of inhibitors 1–12.

[7] = test system: L. infantum; experiment: Growth of L. infantum in infected primary mouse macrophages (PMMs), phenotypic assay; assay type: cell-based, Leishmania infantum; conditions: for EC50: Leishmania infantum, Macrophage
Text: as §3, §2, §4

[8] = Clearance in mouse liver microsomes; assay type: in vitro ADME; conditions: for microsomal CLint: mouse, liver microsomes
Method: as §1

[9] = test system: T. b. brucei; experiment: Growth of T. b. brucei trypomastigotes in axenic culture; assay type: cell-based; conditions: Trypanosoma brucei; CSV supplement; decimal comma; read-out: EC50 T.b. brucei Squib 427
Text: as §3, §4

[10] = test system: T. cruzi; experiment: Intracellular growth of T. cruzi in infected human fibroblasts (MRC-5 cell line); assay type: cell-based; conditions: Trypanosoma cruzi
Text: as §3, §4

[11] = test system: P. falciparum blood stage 3D7 strain; experiment: Growth of P. falciparum blood stage 3D7 strain (phenotypic); assay type: cell-based, Plasmodium falciparum; conditions: Figure 2A; for EC50: Plasmodium falciparum, 3D7, mean (SD) from 2 to 14 measurements
Text: as §3, §4

[12] = Chromatographic Log D at pH 7.4; assay type: physicochemical; conditions: 1-octanol/PBS pH 7.4, determined by chromatography, mean of two measurements
Method: as §1

[13] = phosphate buffered saline, pH 7.4, CSV supplement, read-out: Kinetic solubility
[14] = phosphate buffered saline, pH 7.4, phosphate buffered saline pH 7.4, assay range 2.5–200 μM, read-out: solubility (kinetic)
[15] = MDCK-MDR1, pH 7.4, ER, efflux ratio (BA/AB)
[16] = MDCK-MDR1, pH 7.4, MDCK MDR1 - pH 7.4 Efflux Ratio
[17] = CSV supplement, decimal comma, read-out: EC50 L. infantum MHOM/MA(BE)/67
[18] = Table 1, mean (standard deviation, number of measurements), read-out: EC50 (μM), inhibition of the growth of L. infantum
[19] = CSV supplement, read-out: CLint in vitro Mouse Microsomes
[20] = incubation with mouse liver microsomes, read-out: CLint
[21] = MRC5, Table S1, mean (SD), 2 to 14 measurements, unit not given in Table S1, read-out: In vitro potency, T. cruzi
[22] = TULAHUEN, MRC5, read-out: EC50 T. cruzi Tulahuen C4 (LacZ)

SMILES	t(1/2), Human Microsomes [1]	microsomal CLint [1]	PMM Primary Mouse Macrophages (inf-LMPH) (cytotoxicity) [2]	solubility kinetic [3, 13]	solubility kinetic [3, 14]	MRC-5 cells Human Lung Fibroblast Cells (cytotoxicity) [4]	Papp B→A [5]	efflux ratio [5, 15]	efflux ratio [5, 16]	Papp A→B [5]	EC50 [6]	EC50 [7, 17]	EC50 [7, 18]	t(1/2), Mouse Microsomes ([8]; CSV supplement)	microsomal CLint [8, 19]	microsomal CLint [8, 20]	EC50 [9]	EC50 [10, 21]	EC50 [10, 22]	chromatographic logD [12]	further results
CC(C)(C)OC(=O)N[C@H]1Cc2ccc(cc2)Oc2ccc(cc2)C(=O)CNC(=O)[C@H](Cc2ccccc2)NC1=O [Compound 1]	3,5 min	497 µL/min/mg	48,0 µM	24 µg/mL	44 µM	>64 µM	21.4 ×10⁻⁶ cm/s	4.3	4.3	5 ×10⁻⁶ cm/s	6 µM	32.8 µM	33 µM	<3 min	> 578 µL/min/mg	> 580 µL/min/mg	6.1 µM	15 µM	14.6 µM	4	EC50 ([10]; MRC5, Figure 2A, mean (SD) from 2 to 14 measurements, read-out: EC50 T. cruzi): 10 to 30 µM; potency as inhibitor of P. falciparum (in words) [11]: low or no potency; EC50 [11]: 21 µM
CC(=O)Nc1cc2ccc1Oc1ccc(cc1)C[C@H](NC(=O)OC(C)(C)C)C(=O)N[C@@H](Cc1ccccc1)C(=O)NCC2=O [Compound 2]	6,1 min	285 µL/min/mg	>64 µM	101 µg/mL	> 100 µM	50,5 µM	13.3 ×10⁻⁶ cm/s	19	19.3	0.7 ×10⁻⁶ cm/s	29 µM	–	31 µM	6,0 min	257 µL/min/mg	260 µL/min/mg	37 µM	–	41 µM	3.2	solubility kinetic ([3]; phosphate buffered saline pH 7.4, assay range 2.5–200 μM, read-out: solubility (kinetic)): 169 µM; potency as inhibitor of P. falciparum (in words) [11]: low or no potency; EC50 [11]: > 25 µM
CC(C)(C)OC(=O)N[C@H]1Cc2ccc(cc2)Oc2ccc(cc2NC(=O)c2ccccn2)C(=O)CNC(=O)[C@H](c2ccccc2)NC1=O [Compound 9, tert-Butyl ((8S,11S)-4,7,10-Trioxo-8-phenyl-3^2-(picolinamido)-2-oxa-6,9-diaza-1,3(1,4)-dibenzenacyclododecaphane-11-yl)carbamate]	8,8 min	197 µL/min/mg	>64 µM	10.3 µg/mL	16 µM	>64 µM	4.2 ×10⁻⁶ cm/s	9.9	9.9	0.4 ×10⁻⁶ cm/s	1.9 µM	–	6.6 µM	8,4 min	206 µL/min/mg	210 µL/min/mg	7.7 µM	19 µM	18.9 µM	4.4	activity as inhibitor of T. b. rhodesiense (in words) [6]: moderately active
CC(C)(C)OC(=O)N[C@H]1CCc2ccc(cc2)Oc2ccc(cc2NC(=O)c2ccccn2)C(=O)CNC(=O)[C@H](Cc2ccccc2)NC1=O [Compound 5, tert-Butyl ((8S,11S)-8-Benzyl-4,7,10-trioxo-3^2-(picolinamido)-2-oxa-6,9-diaza-1,3(1,4)-dibenzenacyclotridecaphane-11-yl)carbamate]	<3 min	> 578 µL/min/mg	>64 µM	1.8 µg/mL	2.7 µM	>64 µM	17.3 ×10⁻⁶ cm/s	13	13.2	1.3 ×10⁻⁶ cm/s	5.6 µM	16.6 µM	17 µM	<3 min	> 578 µL/min/mg	> 580 µL/min/mg	7.4 µM	–	18 µM	4.8	loss in potency compared to 3, L. infantum ([7]; relative to compound 3): ~10 fold
CC(C)C[C@@H]1NC(=O)[C@@H](NC(=O)OC(C)(C)C)Cc2ccc(cc2)Oc2ccc(cc2NC(=O)c2ccccn2)C(=O)CNC1=O [Compound 10, tert-Butyl ((8S,11S)-8-Isobutyl-4,7,10-trioxo-3^2-(picolinamido)-2-oxa-6,9-diaza-1,3(1,4)-dibenzenacyclododecaphane-11-yl)carbamate]	4,8 min	361 µL/min/mg	>64 µM	4.8 µg/mL	7.6 µM	>64 µM	6.8 ×10⁻⁶ cm/s	3.1	3.1	2.2 ×10⁻⁶ cm/s	2.1 µM	–	2.1 µM	<3 min	> 578 µL/min/mg	> 580 µL/min/mg	8.5 µM	–	50 µM	4.8	activity as inhibitor of T. b. rhodesiense (in words) [6]: moderately active
